Where no end group is shown, it is not given here.

Experiment [1] relates to peripheral blood mononuclear cells and spleen cells. The conditions noted are these: reported, Wahl et al.; cited from earlier work.
For experiment [2] the following is noted: in vivo rat model, reported; cited from earlier work.
Another experiment concerns the target T1, α1β2 (LFA-1) integrin (Homo sapiens, UniProt P05107+P20701).
T1 construct: the B-cell line M16B (which both express functional α4β1 and α1β2 integrin); endogenous in cells; host or cells: M16B B-cell line
As to the kind of experiment: α1β2 (LFA-1) integrin dependent M16B adhesion to rICAM. The format is cell-based. On the procedure:
To determine whether inhibition of adhesion by soluble FN-C/H V is specific for b1 integrins, the ability of this peptide to inhibit β2 integrin-dependent adhesion was also evaluated.

Another experiment has as its target α4β1 integrin (Homo sapiens, UniProt P05556+P13612). The experiment is described as follows: α4β1 integrin-dependent Mn+2 stimulated M16B adhesion to rCS1. On the set-up: endogenous in cells. The conditions noted are these: soluble peptide. The format is cell-based.
The target of experiment [3] is T2, α5β1 integrin (Homo sapiens, UniProt P05556+P08648).
T2 construct: erythroleukemic cell line K562, which expresses α5β1 but not α4β1 integrin; endogenous in cells; host or cells: K562 cells
T2 sequence (P08648 42-894 limits assumed): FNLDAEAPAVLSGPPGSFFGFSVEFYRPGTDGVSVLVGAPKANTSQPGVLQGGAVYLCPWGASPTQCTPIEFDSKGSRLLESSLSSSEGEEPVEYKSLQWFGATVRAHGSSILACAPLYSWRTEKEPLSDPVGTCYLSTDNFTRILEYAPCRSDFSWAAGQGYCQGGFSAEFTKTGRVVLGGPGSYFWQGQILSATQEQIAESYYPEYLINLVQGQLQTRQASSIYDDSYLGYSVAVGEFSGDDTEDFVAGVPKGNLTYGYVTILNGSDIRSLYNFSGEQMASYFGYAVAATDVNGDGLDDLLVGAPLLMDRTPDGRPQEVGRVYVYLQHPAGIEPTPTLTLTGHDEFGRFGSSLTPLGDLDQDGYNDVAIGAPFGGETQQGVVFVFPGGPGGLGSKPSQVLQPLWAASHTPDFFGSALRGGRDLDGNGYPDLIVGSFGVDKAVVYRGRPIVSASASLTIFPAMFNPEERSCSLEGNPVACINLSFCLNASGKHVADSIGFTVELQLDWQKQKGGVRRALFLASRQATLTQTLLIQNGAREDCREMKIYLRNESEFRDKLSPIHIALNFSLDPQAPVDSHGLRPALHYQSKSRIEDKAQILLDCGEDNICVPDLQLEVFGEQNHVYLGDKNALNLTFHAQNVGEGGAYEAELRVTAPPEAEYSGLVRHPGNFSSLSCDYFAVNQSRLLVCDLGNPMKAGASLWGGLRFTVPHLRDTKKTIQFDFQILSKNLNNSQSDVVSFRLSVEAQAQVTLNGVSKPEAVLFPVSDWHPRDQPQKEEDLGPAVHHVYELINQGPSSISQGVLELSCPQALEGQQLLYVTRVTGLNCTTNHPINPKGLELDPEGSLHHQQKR
T2 sequence (P08648 895-1049 limits assumed): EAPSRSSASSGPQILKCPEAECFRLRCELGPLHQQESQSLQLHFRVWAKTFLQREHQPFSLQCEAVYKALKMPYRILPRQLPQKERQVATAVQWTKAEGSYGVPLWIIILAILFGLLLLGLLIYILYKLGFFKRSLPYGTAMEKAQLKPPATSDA
T2 sequence (P05556 21-798): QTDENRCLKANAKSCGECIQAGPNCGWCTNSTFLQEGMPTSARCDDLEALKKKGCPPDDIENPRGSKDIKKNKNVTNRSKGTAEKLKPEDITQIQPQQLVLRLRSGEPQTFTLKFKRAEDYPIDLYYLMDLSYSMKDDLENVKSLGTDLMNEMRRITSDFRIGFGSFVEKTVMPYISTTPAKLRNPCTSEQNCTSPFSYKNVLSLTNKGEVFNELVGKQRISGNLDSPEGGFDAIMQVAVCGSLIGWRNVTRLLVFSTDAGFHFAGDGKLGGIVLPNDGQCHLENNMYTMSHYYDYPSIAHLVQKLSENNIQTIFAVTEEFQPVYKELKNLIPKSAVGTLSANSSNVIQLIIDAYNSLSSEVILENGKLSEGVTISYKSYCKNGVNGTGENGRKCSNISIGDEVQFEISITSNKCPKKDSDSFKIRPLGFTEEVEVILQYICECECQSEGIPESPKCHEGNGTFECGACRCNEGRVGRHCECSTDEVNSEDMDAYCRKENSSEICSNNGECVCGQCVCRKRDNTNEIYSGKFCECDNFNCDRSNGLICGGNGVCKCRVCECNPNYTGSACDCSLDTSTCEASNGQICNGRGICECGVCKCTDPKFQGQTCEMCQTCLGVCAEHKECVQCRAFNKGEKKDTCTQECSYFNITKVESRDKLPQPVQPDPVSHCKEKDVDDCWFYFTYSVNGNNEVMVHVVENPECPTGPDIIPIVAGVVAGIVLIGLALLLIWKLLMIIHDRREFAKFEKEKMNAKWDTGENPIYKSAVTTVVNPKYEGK
As to the kind of experiment: Inhibition of α5β1 integrin dependent Mn+2 stimulated adhesion of K562 cells to fibronectin (FN). The format is cell-based. As to the method:
The cell adhesion assay was carried out as described above. […] Each data point represents the mean of triplicate determinations and the error bars represent the standard deviation of the mean. The solid black line represents adhesion to the negative control substrate, BSA.

A further experiment concerns VCAM. The following applies: reported; cited from earlier work.
A further experiment concerns α2β1 and α3β1 integrin. The experiment is described as follows: Inhibition of α2β1, α3β1 integrin dependent human melanoma M14#5 cell adhesion to laminin and type IV collagen. The class given is cell-based. The conditions noted are these: 0.5 mg/ml peptide (0.42 mM), 30 minutes. On the procedure: An experiment was conducted to examine the ability of FN-C/H V+Y (SEQ ID NO:1) to inhibit α2β1, α3β1 integrin dependent cell adhesion using an assay based on human melanoma cells (M14#5).
Laminin, type IV collagen and BSA were coated overnight in a 96 well microtiter plate at 10 μg/ml and blocked with 0.3% BSA. M14#5 cells were preincubated with 0.5 mg/ml of peptide (equivalent to 0.42 mM FN-C/H V and scrambled FN-C/H V and 0.17 mM CSI) and allowed to adhere to substrates for 30 minutes.

The target of experiment [4] is α5β1 integrin (UniProt P08648 42-1049; P05556 21-798). The experiment is described as follows: cell-based or functional assay.
Sequence of α5β1 integrin (UniProt P08648 42-1049; P05556 21-798) (P08648 42-1049, chain 1 of 2): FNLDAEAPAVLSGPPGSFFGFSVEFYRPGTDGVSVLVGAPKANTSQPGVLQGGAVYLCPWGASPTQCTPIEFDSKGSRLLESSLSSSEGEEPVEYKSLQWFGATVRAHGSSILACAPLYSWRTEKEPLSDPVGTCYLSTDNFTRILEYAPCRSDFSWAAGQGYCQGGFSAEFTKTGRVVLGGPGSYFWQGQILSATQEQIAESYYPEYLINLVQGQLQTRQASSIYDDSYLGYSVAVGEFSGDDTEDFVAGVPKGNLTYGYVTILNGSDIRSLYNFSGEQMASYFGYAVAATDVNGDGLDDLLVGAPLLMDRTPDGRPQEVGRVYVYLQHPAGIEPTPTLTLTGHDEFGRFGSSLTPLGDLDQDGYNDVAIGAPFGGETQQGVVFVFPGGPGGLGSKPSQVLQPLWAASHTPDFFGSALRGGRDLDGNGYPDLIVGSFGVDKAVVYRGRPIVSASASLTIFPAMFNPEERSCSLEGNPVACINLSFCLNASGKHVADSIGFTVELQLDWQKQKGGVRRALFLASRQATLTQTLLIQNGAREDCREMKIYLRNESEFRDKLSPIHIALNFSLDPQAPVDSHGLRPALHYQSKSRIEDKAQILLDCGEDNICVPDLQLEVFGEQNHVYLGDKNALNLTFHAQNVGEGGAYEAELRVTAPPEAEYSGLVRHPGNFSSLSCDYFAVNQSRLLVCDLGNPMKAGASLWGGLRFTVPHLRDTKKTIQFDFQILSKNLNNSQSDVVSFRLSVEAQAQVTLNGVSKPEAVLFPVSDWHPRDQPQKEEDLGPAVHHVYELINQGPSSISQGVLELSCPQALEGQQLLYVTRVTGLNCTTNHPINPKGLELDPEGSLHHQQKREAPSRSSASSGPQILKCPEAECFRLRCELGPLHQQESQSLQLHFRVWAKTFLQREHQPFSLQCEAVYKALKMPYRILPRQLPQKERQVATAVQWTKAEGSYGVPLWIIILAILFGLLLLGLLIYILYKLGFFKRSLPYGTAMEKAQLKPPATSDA
Sequence of α5β1 integrin (UniProt P08648 42-1049; P05556 21-798) (P05556 21-798, chain 2 of 2): as the sequence (P05556 21-798) above

Sequence of α4β1 integrin (P13612 34-1032): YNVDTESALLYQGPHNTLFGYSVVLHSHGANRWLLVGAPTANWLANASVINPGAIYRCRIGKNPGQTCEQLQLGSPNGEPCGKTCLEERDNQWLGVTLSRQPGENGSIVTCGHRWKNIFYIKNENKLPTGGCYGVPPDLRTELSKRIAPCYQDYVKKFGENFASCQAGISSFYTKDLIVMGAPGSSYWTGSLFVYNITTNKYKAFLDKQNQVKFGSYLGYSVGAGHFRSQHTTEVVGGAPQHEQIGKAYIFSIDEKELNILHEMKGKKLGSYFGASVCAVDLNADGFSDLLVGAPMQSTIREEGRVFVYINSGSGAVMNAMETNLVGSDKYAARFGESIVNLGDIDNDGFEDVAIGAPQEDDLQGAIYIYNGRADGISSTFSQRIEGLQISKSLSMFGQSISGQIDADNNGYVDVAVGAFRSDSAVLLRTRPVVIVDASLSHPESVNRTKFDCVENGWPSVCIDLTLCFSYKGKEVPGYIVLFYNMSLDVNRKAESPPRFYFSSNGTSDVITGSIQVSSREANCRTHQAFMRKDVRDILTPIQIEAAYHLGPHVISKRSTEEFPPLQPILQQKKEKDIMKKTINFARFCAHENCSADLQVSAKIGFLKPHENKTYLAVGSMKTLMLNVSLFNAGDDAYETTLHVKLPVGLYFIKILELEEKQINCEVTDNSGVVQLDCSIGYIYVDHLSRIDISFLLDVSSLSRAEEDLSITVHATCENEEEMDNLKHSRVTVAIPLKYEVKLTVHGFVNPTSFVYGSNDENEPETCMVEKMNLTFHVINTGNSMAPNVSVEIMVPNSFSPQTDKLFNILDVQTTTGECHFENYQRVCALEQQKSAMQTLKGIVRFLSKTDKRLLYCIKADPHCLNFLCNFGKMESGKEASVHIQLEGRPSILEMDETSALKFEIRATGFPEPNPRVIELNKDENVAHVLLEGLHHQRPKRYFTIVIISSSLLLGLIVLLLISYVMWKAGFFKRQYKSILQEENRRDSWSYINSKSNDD
Sequence of α4β1 integrin (P05556 21-798): as the sequence (P05556 21-798) above

For the molecule “KNNQKSEPLIGR-KKTY (KNNQKSEPLIGRKKTY; listed as Homo sapiens) [FN-C/H II+Y]”, the “inhibition of leukocyte adhesion to fibronectin in vitro” value (from here on “inhibition of leukocyte adhesion”) in experiment [1] is “inhibit leukocyte adhesion to fibronectin in vitro”. For the same molecule, the anti-inflammatory properties entry in experiment [2] was “exhibit anti-inflammatory properties”.
For WQPPRARIY-OH [SEQ ID NO:1], the “inhibition of leukocyte adhesion” value in experiment [1] is listed as “inhibit leukocyte adhesion to fibronectin in vitro”. The anti-inflammatory properties result in experiment [2] is listed as “exhibit anti-inflammatory properties”. Besides, the “inhibition of M16B adhesion to rICAM” value at α1β2 (LFA-1) integrin was “not inhibited”. Besides, the “inhibition of M16B adhesion to rCS1” value against α4β1 integrin was “completely inhibited”. For the same molecule, the “inhibition of K562 adhesion to FN at the maximal concentration tested” value against α5β1 integrin [3] (0.84 mM peptide, K562 cells stimulated with 1 mM MnCl2) is on record as “completely inhibited”. In addition, the IC50 on α5β1 integrin [3] (K562 cells stimulated with 1 mM MnCl2, adhesion to FN, read-out: half-maximal inhibitory concentration) was determined as 200 µM. Moreover, the “inhibition of adhesion to VCAM” value with VCAM is on record as “inhibit adhesion to VCAM”. Besides, the “inhibition of M14#5 cell adhesion to laminin” value in the experiment on α2β1 and α3β1 integrin (laminin coated substrate) was “inhibited”. In addition, the “inhibition of M14#5 cell adhesion to type IV collagen” value in the experiment with α2β1 and α3β1 integrin (type IV collagen coated substrate) is listed as “inhibited”.
Consider “YEKPGSPPREV-VPRPRPGVY (YEKPGSPPREVVPRPRPGVY; listed as Homo sapiens) [FN-C/H I+Y]”, for which the “inhibition of leukocyte adhesion” value in experiment [1] is given as “inhibit leukocyte adhesion to fibronectin in vitro”. The anti-inflammatory properties result in experiment [2] is “exhibit anti-inflammatory properties”.
Turning to “DELPQLVTLPHPNLHGPEILDVPST (listed as Homo sapiens) [CS1, fibronectin residues 1961-1985]”, the “inhibition of M16B adhesion to rCS1” value with α4β1 integrin is “completely inhibited”.
For the molecule PRARIY, the “half-maximal inhibitory concentration (K562 adhesion to FN)” value in the experiment with α5β1 integrin [4] is around 0.2 mM.

The values are drawn from patent US6849712B1, “Peptides with β1 integrin subunit dependent cell adhesion modulating activity” (Regents of the University of Minnesota, priority 1998, dated 2005).
